Data as given in ChEMBL document CHEMBL3272307, “Imidazo(1,2-c)pyrimidine nucleosides. Synthesis and biological evaluation of certain 1-(beta-D-arabinofuranosyl)imidazo(1,2-c)pyrimidines” (1976).
In brackets after ≈: the same amount, converted by molar mass. Activity calls are given as the source filed them. The rule behind the calls is not given here.

How the values were obtained:
KB = assay: Antiviral activity against Rhinovirus type 13 infected in human KB cells assessed as inhibition of virus-induced cytopathic effect at 1 to 1000 ug/ml after 72 hrs; type: functional, cell-based; conditions: Human rhinovirus A13
Escherichia coli = assay: Antimicrobial activity against Escherichia coli clinical isolate at 0.005 to 0.4 umol/ml after 24 hrs by broth dilution assay; type: functional, organism-based
Candida albicans = assay: Antimicrobial activity against Candida albicans clinical isolate at 0.005 to 0.4 umol/ml after 24 hrs by broth dilution assay; type: functional, organism-based
Staphylococcus aureus [1] = assay: Antimicrobial activity against Staphylococcus aureus clinical isolate at 0.005 to 0.4 umol/ml after 24 hrs by broth dilution assay; type: functional, organism-based
Human alphaherpesvirus 1 = assay: Antiviral activity against Herpes simplex virus 1 infected in human KB cells assessed as inhibition of virus induced cytopathic effects at 1 to 1000 ug/ml after 72 hrs; type: functional, organism-based
Human respirovirus 3 = assay: Antiviral activity against Parainfluenza virus type 3 infected in human KB cells assessed as inhibition of virus-induced cytopathic effect at 1 to 1000 ug/ml after 72 hrs; type: functional, organism-based
Klebsiella pneumoniae = assay: Antimicrobial activity against Klebsiella pneumoniae clinical isolate at 0.005 to 0.4 umol/ml after 24 hrs by broth dilution assay; type: functional, organism-based
[2] = tested on: Trichophyton mentagrophytes; assay: Antimicrobial activity against Trichophyton mentagrophytes clinical isolate at 0.005 to 0.4 umol/ml after 48 hrs by broth dilution assay; type: functional, organism-based
Proteus mirabilis = assay: Antimicrobial activity against Proteus mirabilis clinical isolate at 0.005 to 0.4 umol/ml after 24 hrs by broth dilution assay; type: functional, organism-based
Staphylococcus aureus [3] = assay: Antimicrobial activity against Staphylococcus aureus clinical isolate after 24 hrs by broth dilution assay; type: functional
[4] = tested on: Trichophyton mentagrophytes; assay: Antimicrobial activity against Trichophyton mentagrophytes clinical isolate after 48 hrs by broth dilution assay; type: functional

MIC (Staphylococcus aureus [3]) [µM]	MIC [4] [µM]	SMILES	Activity (KB)	Activity (Escherichia coli)	Activity (Candida albicans)	Activity (Staphylococcus aureus [1])	Activity (Human alphaherpesvirus 1)	Activity (Human respirovirus 3)	Activity (Klebsiella pneumoniae)	Activity [2]	Activity (Proteus mirabilis)
		O=c1nc(Cl)cc2n([C@@H]3O[C@H](COCc4ccccc4)[C@@H](OCc4ccccc4)[C@@H]3OCc3ccccc3)ccn12	inactive	inactive	inactive	inactive	inactive	inactive	inactive	inactive	inactive
160 (≈ 86 µg/mL)	40 (≈ 21.5 µg/mL)	O=c1nccc2n([C@@H]3O[C@H](COCc4ccccc4)[C@@H](OCc4ccccc4)[C@@H]3OCc3ccccc3)ccn12	Active	inactive	inactive		inactive	inactive	inactive		inactive
		Cl[C@H]1O[C@H](COCc2ccccc2)[C@@H](OCc2ccccc2)[C@@H]1OCc1ccccc1	inactive	inactive	inactive	inactive	inactive	inactive	inactive	inactive	inactive
		C[Si](C)(C)Oc1nc(Cl)cc2nccn12	inactive	inactive	inactive	inactive	inactive	inactive	inactive	inactive	inactive
		O=c1nccc2n([C@@H]3O[C@H](CO)[C@@H](O)[C@@H]3O)ccn12	inactive	inactive	inactive	inactive	inactive	inactive	inactive	inactive	inactive
		O=c1nccc2n([C@@H](CO)OC(CO)CO)ccn12	inactive	inactive	inactive	inactive	inactive	inactive	inactive	inactive	inactive
		Nc1cc2n([C@@H]3O[C@H](CO)[C@@H](O)[C@@H]3O)ccn2c(=O)n1	inactive	inactive	inactive	inactive	inactive	inactive	inactive	inactive	inactive
160 (≈ 88.4 µg/mL)	40 (≈ 22.1 µg/mL)	Nc1cc2n([C@@H]3O[C@H](COCc4ccccc4)[C@@H](OCc4ccccc4)[C@@H]3OCc3ccccc3)ccn2c(=O)n1	Active	inactive	inactive		inactive	inactive	inactive		inactive
